Source: paper PMC9371267 (PLoS Biology, 2022)
Positions count from the first letter of the chain named.

Columns and labels:
Type in all cases: cell-based
GALR2 L255^6.54A mutant = molecular target: T1, GALR2 L255^6.54A mutant (Homo sapiens, UniProt O43603, L255A); assay: NanoBiT-based Gq activation assay, L255^6.54A; conditions: HEK293-A
T1 construct: expressed in transfected cells; host or cells: HEK293A
T1 sequence (O43603 1-387 L255A): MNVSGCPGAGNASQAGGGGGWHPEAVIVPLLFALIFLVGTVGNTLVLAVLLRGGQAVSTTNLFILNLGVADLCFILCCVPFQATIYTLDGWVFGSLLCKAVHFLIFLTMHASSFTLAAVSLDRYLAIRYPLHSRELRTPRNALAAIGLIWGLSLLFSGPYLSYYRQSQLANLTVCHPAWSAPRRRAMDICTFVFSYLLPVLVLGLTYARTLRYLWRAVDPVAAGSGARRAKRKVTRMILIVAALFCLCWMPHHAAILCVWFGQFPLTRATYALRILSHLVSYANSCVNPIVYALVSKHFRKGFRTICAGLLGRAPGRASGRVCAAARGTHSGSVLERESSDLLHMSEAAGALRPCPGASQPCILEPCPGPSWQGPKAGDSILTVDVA
Procedure: (§1) After an incubation for 1 day, the transfected cells were harvested, pelleted with centrifugation, and suspended in 2 mL of Hank’s balanced saline solution containing 0.01% bovine serum albumin (BSA fatty acid–free grade, SERVA) and 5 mM HEPES (pH 7.4) (assay buffer). The cell suspension was dispensed in a white 96-well plate at a volume of 80 μl per well and mixed with 20 μl of 50 μM coelenterazine (custom-synthesized by Amadis Chemical) diluted in the assay buffer. After 2-h incubation at room temperature, the plate was measured for baseline luminescence (SpectraMax L, Molecular Devices). […] Kinetics data points from 5 min to 10 min were averaged and normalized to the initial count and used as a G-protein activation index. The G-protein activation signals were fitted to a 4-parameter sigmoidal concentration-response curve (GraphPad Prism8), and pEC50 values (negative logarithmic values of EC50 values) and Span values (“Top”–“Bottom”) were obtained. For individual experiments, we calculated Emax by normalizing Span to the WT GALR2 and ΔpEC50 by subtracting pEC50 of the WT GALR2 performed in parallel. We also calculated Emax/EC50 of GALR2 mutants relative to that of GALR2 WT, a dimensionless parameter known as relative intrinsic activity (RAi) and used its log-transformed value (Log RAi) to denote receptor activity.

GALR2 V174^ECL2A mutant = molecular target: T2, GALR2 V174^ECL2A mutant (Homo sapiens, UniProt O43603, V174A); assay: NanoBiT-based Gq activation assay, V174^ECL2A; conditions: HEK293-A; HEK293A; expression ~WT (1:5); normalized to WT (1:1); mean ± SEM, n = 3; ns p > 0.05 vs expression-matched WT
T2 construct: expressed in transfected cells; host or cells: HEK293A
T2 sequence (O43603 1-387 V174A): T1 sequence (O43603 1-387 L255A) with V174A, A255L
Procedure: as §1

GALR2 H176^ECL2A mutant = molecular target: T3, GALR2 H176^ECL2A mutant (Homo sapiens, UniProt O43603, H176A); assay: NanoBiT-based Gq activation assay, H176^ECL2A; conditions: HEK293-A; HEK293A; expression ~WT (1:1); normalized to WT (1:1); mean ± SEM, n = 3; ns p > 0.05 vs expression-matched WT
T3 construct: expressed in transfected cells; host or cells: HEK293A
T3 sequence (O43603 1-387 H176A): T1 sequence (O43603 1-387 L255A) with H176A, A255L
Procedure: as §1

[1] = molecular target: T4, GALR2 Y164^4.64×65F mutant (Homo sapiens, UniProt O43603, Y164F); assay: NanoBiT-based Gq activation assay, Y164^4.64×65F; conditions: HEK293-A; HEK293A; expression ~WT (1:2.5); normalized to WT (1:1); mean ± SEM, n = 3; * p < 0.05 vs expression-matched WT
T4 construct: expressed in transfected cells; host or cells: HEK293A
T4 sequence (O43603 1-387 Y164F): T1 sequence (O43603 1-387 L255A) with Y164F, A255L
Procedure: as §1

GALR2 L266^ECL3A mutant = molecular target: T5, GALR2 L266^ECL3A mutant (Homo sapiens, UniProt O43603, L266A); assay: NanoBiT-based Gq activation assay, L266^ECL3A; conditions: HEK293-A; HEK293A; expression ~WT (1:1); normalized to WT (1:1); mean ± SEM, n = 3; ns p > 0.05 vs expression-matched WT
T5 construct: expressed in transfected cells; host or cells: HEK293A
T5 sequence (O43603 1-387 L266A): T1 sequence (O43603 1-387 L255A) with A255L, L266A
Procedure: as §1

How did the Emax (GALR2 L255^6.54A mutant) turn out when `CC(C)C[C@H](NC(=O)CNC(=O)[C@H](CC(N)=O)NC(=O)[C@H](CCCCN)NC(=O)[C@H](CC(=O)O)NC(=O)[C@H](CO)NC(=O)[C@H](Cc1ccccc1)NC(=O)[C@H](CO)NC(=O)[C@H](CCCNC(=N)N)NC(=O)[C@H](Cc1c[nH]cn1)NC(=O)[C@H](CC(N)=O)NC(=O)CNC(=O)[C@@H](NC(=O)[C@H](C)NC(=O)[C@H](Cc1c[nH]cn1)NC(=O)[C@@H]1CCCN1C(=O)CNC(=O)[C@H](CC(C)C)NC(=O)[C@H](CC(C)C)NC(=O)[C@H](Cc1ccc(O)cc1)NC(=O)CNC(=O)[C@H](C)NC(=O)[C@H](CO)NC(=O)[C@H](CC(N)=O)NC(=O)[C@H](CC(C)C)NC(=O)[C@@H](NC(=O)[C@H](Cc1c[nH]c2ccccc12)NC(=O)CN)[C@@H](C)O)C(C)C)C(=O)N[C@H](C(=O)N[C@@H](CO)C(=O)O)[C@@H](C)O` [galanin] was run?
The Emax was 64.7 ± 1.6%.

What about the Emax (GALR2 V174^ECL2A mutant) of the same molecule?
Its Emax is 72.8 ± 11.3%.

What about the Emax (GALR2 H176^ECL2A mutant) of the same molecule?
The Emax was 116 ± 3.4%.

What about the Emax [1] of the same molecule?
The Emax was 64.9 ± 2.4%.

What about the Emax (GALR2 L266^ECL3A mutant) of the same molecule?
Its Emax is 90.9 ± 10.5%.
